Test results published in ChEMBL document CHEMBL1152274, “Discovery of potent and selective agonists for the free fatty acid receptor 1 (FFA(1)/GPR40), a potential target for the treatment of type II diabetes” (J Med Chem, 2008).
pEC50: −log10 of the molar value. Calls of active or inactive are those of the source. The calls are words filed in the database; no cut-off is given here.

What was measured:
[1] = biological target: T1, Free fatty acid receptor 1 (Homo sapiens, UniProt O14842); test: Agonist activity at human FFA1 expressed in human 1321N1 cells by calcium fluorescence assay; assay type: functional, cell-based; conditions: for EC50: read-out: pEC50 (converted); for pEC50: read-out: EC50
[2] = biological target: T1, Free fatty acid receptor 1; test: Agonist activity at human FFA1 expressed in human 1321N1 cells by calcium fluorescence assay relative to 3-(4-(benzyloxy)phenyl)propionic acid; assay type: functional, cell-based
[3] = biological target: T2, Free fatty acid receptor 2 (Homo sapiens) (UniProt O15552); test: Agonist activity at FFA2; assay type: functional
T2 sequence (whole entry): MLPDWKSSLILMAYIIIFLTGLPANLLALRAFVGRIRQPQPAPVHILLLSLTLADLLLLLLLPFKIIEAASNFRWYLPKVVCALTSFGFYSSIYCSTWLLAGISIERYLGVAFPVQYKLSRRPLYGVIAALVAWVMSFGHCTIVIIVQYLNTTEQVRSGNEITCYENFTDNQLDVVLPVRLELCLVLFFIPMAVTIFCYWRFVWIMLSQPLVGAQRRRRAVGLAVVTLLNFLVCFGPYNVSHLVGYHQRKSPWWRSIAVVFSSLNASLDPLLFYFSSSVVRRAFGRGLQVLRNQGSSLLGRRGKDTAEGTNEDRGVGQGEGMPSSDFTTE

[4] = biological target: T3, Free fatty acid receptor 3 (Homo sapiens) (UniProt O14843); test: Agonist activity at FFA3; assay type: functional
T3 sequence (whole entry): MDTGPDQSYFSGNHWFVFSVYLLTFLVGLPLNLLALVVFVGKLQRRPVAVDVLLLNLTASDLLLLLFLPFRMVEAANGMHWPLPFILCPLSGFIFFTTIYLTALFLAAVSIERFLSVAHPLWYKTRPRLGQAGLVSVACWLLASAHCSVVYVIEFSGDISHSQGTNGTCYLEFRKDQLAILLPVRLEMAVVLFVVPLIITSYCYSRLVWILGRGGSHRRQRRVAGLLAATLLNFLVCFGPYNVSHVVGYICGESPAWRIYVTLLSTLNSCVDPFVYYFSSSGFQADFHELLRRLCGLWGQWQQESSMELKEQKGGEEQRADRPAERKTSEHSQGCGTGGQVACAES

[5] = biological target: T1, Free fatty acid receptor 1; test: Agonist activity at human FFA1 expressed in human 1321N1 cells up to 31.6 uM by calcium fluorescence assay; assay type: functional, cell-based
[6] = test system: INS-1E; test: Enhancement of glucose-stimulated insulin secretion in rat INS-1E cells at 3 uM; assay type: functional, cell-based
[7] = test system: INS-1E; test: Enhancement of insulin secretion in rat INS-1E cells in presence of 12 mM glucose; assay type: functional, cell-based
[8] = test system: INS-1E; test: Enhancement of palmitate-stimulated insulin secretion in rat INS-1E cells at 10 uM; assay type: functional, cell-based
[9] = test system: INS-1E; test: Reduction of basal insulin secretion in rat INS-1E cells in presence of 2.8 mM glucose; assay type: functional, cell-based
[10] = test system: Pancreatic islet; test: Induction of glucose-stimulated insulin secretion in pancreatic islets cells isolated from wild type mouse; assay type: functional, cell-based
[11] = test system: Pancreatic islet; test: Induction of glucose-stimulated insulin secretion in pancreatic islets cells isolated from FFA1-deficient mouse; assay type: functional, cell-based

T1 sequence (O14842 whole entry): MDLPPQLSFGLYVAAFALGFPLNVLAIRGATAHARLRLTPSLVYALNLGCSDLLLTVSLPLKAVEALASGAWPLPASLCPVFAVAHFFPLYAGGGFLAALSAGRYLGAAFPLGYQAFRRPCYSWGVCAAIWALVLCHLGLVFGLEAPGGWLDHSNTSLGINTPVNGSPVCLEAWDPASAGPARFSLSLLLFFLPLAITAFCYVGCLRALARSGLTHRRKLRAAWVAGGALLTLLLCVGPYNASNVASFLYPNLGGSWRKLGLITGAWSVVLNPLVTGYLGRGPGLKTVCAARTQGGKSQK

## O=C(O)CCc1ccc(C#Cc2cccc3ccccc23)cc1
[1]
  EC50: 85.1 nM
[2]
  Activity: 100%
[3]
  Activity: inactive
[4]
  Activity: inactive

## N#Cc1cccc(C#Cc2ccc(CCC(=O)O)cc2)c1
[2]
  Activity: 92%
[3]
  Activity: inactive
[4]
  Activity: inactive

## O=C(O)CCc1ccc(C#Cc2cccc([N+](=O)[O-])c2)cc1
[1]
  EC50: 58.9 nM
[2]
  Activity: 94%
[3]
  Activity: inactive
[4]
  Activity: inactive

## Cc1cccc(C#Cc2ccc(OCC(=O)O)cc2)c1
[1]
  EC50: 513 nM
[2]
  Activity: 113%
[3]
  Activity: inactive
[4]
  Activity: inactive

## O=C(O)CCc1ccc(C#Cc2cccc(C(F)(F)F)c2)cc1
[2]
  Activity: 98%
[3]
  Activity: inactive
[4]
  Activity: inactive

## O=C(O)COc1ccc(C#Cc2ccccc2)cc1
[1]
  EC50: 1260 nM
[2]
  Activity: 104%
[3]
  Activity: inactive
[4]
  Activity: inactive

## O=C(O)CCc1ccc(C#Cc2cccc(CO)c2)cc1
[2]
  Activity: 103%
[3]
  Activity: inactive
[4]
  Activity: inactive

## O=C(O)COc1ccc(C#Cc2ccc(CO)cc2)cc1
[5]
  Activity: inactive
[3]
  Activity: inactive
[4]
  Activity: inactive

## O=C(O)COc1ccc(C#Cc2ccc(O)cc2)cc1
[5]
  Activity: inactive
[3]
  Activity: inactive
[4]
  Activity: inactive

## Cc1ccc(C#Cc2ccc(OCC(=O)O)cc2)cc1
[5]
  Activity: inactive
[3]
  Activity: inactive
[4]
  Activity: inactive

## O=C(O)CCc1ccc(C#Cc2ccccc2)cc1
[1]
  pEC50: 7.02
[2]
  Activity: 106%
[3]
  Activity: inactive
[4]
  Activity: inactive

## O=Cc1cccc(C#Cc2ccc(CCC(=O)O)cc2)c1
[2]
  Activity: 94%
[3]
  Activity: inactive
[4]
  Activity: inactive

## Cc1cccc(C#Cc2ccc(CCC(=O)O)cc2)c1C
[2]
  Activity: 108%
[3]
  Activity: inactive
[4]
  Activity: inactive

## Nc1cccc(C#Cc2ccc(CCC(=O)O)cc2)c1
[2]
  Activity: 96%
[3]
  Activity: inactive
[4]
  Activity: inactive

## Cc1cccc(C#Cc2ccc(CCC(=O)O)cc2)c1
[2]
  Activity: 109%
[3]
  Activity: inactive
[4]
  Activity: inactive

## Cc1ccccc1C#Cc1ccc(CCC(=O)O)cc1
[1]
  pEC50: 7.49
[2]
  Activity: 105%
[3]
  Activity: inactive
[4]
  Activity: inactive
[6]
  Activity: Active
[7]
  Activity: Active
[8]
  Activity: Active
[9]
  Activity: Active
[10]
  Activity: inactive
[11]
  Activity: inactive

## Cc1ccccc1C#Cc1ccc(OCC(=O)O)cc1
[1]
  EC50: 3720 nM
[2]
  Activity: 96%
[3]
  Activity: inactive
[4]
  Activity: inactive

## C#Cc1cccc(C#Cc2ccc(CCC(=O)O)cc2)c1
[2]
  Activity: 100%
[3]
  Activity: inactive
[4]
  Activity: inactive

## Cc1ccc(C#Cc2ccc(CCC(=O)O)cc2)cc1
[1]
  EC50: 107 nM
[2]
  Activity: 99%
[3]
  Activity: inactive
[4]
  Activity: inactive

## O=C(O)COc1ccc(C#Cc2cccc(O)c2)cc1
[1]
  EC50: 5620 nM
[2]
  Activity: 86%
[3]
  Activity: inactive
[4]
  Activity: inactive

## Cc1cc(C)cc(C#Cc2ccc(CCC(=O)O)cc2)c1
[2]
  Activity: 101%
[3]
  Activity: inactive
[4]
  Activity: inactive
